From patent US8163702B2, “Treatment of melanoma” (SciClone Pharmaceuticals, Inc., priority 2006, dated 2012)

System: murine B16 melanoma
Test: Antitumor effect in murine B16 melanoma model, tumor size and tumor weight (Example 2)
Assay type: in vivo, C57BL/6 mice
Description: As per aseptic tissue culture procedures, one vial of B16 melanoma cells (supplied by Cell Culture Center of CAMS) was thawed and centrifuged at 1000 rpm, 20-25° C. for 5 minutes. The cell pellets were suspended in 0.1-0.5 mL normal saline (NS) and subcutaneously injected into the right axilla of each mouse (approximately 1×10^6 cells/mouse). When the tumor diameter was 1 cm approximately (measured by vernier caliper), the animals were euthanized with CO2 asphyxiation and the tumor was excised. Tumor cells were suspended in normal saline as previously described and the cell adaptation cycle was repeated once.
On Day 0, 1×10^6 B16 cells in a volume of 0.1 mL normal saline were subcutaneously injected into the right axillary area of the mouse. The day of tumor inoculation was defined as Day 0.
Dosing was initiated on Day 1.
Observations were recorded daily for mortality and moribundity. […] The tumors were excised, separated, and weighed.
Tumor volume was calculated using the following formula: Tumor Volume=Length×Width×Width/2 Tumor volume inhibition rate (IR) was calculated according to the formula: IR(TV)=(TVvehicle−TVdrug treated)/TVvehicle×100% TV is the tumor volume on the day of measurement.
The antitumor effect of the test article was also evaluated by tumor weight. The tumor weight of each mouse was recorded after euthanasia, and the inhibition rate of tumor weight was calculated according to the formula: IR(TW)=(Tumor weightvehicle−Tumor weightdrug treated)/Tumor weightvehicle×100%

[1] = Day 9, SCV-07 0.01 mg/kg/day sc
[2] = Day 9, mouse F1, SCV-07 0.1 mg/kg sc
[3] = Day 9, mouse F1, SCV-07 5.0 mg/kg sc
[4] = Day 9, mouse F2, SCV-07 0.01 mg/kg sc
[5] = Day 9, mouse F2, SCV-07 0.1 mg/kg sc
[6] = Day 9, mouse F2, SCV-07 1.0 mg/kg sc
[7] = Day 9, mouse F2, SCV-07 5.0 mg/kg sc
[8] = Day 9, mouse F3, SCV-07 0.1 mg/kg sc
[9] = Day 9, mouse F3, SCV-07 1.0 mg/kg sc
[10] = Day 9, mouse F4, SCV-07 0.01 mg/kg sc
[11] = Day 9, mouse F4, SCV-07 0.1 mg/kg sc
[12] = Day 9, mouse F4, SCV-07 1.0 mg/kg sc
[13] = Day 9, mouse F4, SCV-07 5.0 mg/kg sc
[14] = Day 9, mouse F5, SCV-07 0.01 mg/kg sc
[15] = Day 9, mouse F5, SCV-07 0.1 mg/kg sc
[16] = Day 9, mouse F5, SCV-07 1.0 mg/kg sc
[17] = Day 9, mouse F5, SCV-07 5.0 mg/kg sc
[18] = Day 9, mouse M1, SCV-07 0.01 mg/kg sc
[19] = Day 9, mouse M1, SCV-07 0.1 mg/kg sc
[20] = Day 9, mouse M1, SCV-07 1.0 mg/kg sc
[21] = Day 9, mouse M1, SCV-07 5.0 mg/kg sc
[22] = Day 9, mouse M2, SCV-07 0.01 mg/kg sc
[23] = Day 9, mouse M2, SCV-07 1.0 mg/kg sc
[24] = Day 9, mouse M3, SCV-07 0.01 mg/kg sc
[25] = Day 9, mouse M3, SCV-07 1.0 mg/kg sc
[26] = Day 9, mouse M3, SCV-07 5.0 mg/kg sc
[27] = Day 9, mouse M4, SCV-07 0.1 mg/kg sc
[28] = Day 9, mouse M4, SCV-07 1.0 mg/kg sc
[29] = Day 9, mouse M4, SCV-07 5.0 mg/kg sc
[30] = Day 9, mouse M5, SCV-07 0.01 mg/kg sc
[31] = Day 9, mouse M5, SCV-07 0.1 mg/kg sc
[32] = Day 12, SCV-07 0.01 mg/kg/day sc
[33] = Day 12, SCV-07 0.1 mg/kg/day sc
[34] = Day 12, SCV-07 1.0 mg/kg/day sc
[35] = Day 12, SCV-07 5.0 mg/kg/day sc
[36] = Day 12, mouse F1, SCV-07 0.01 mg/kg sc
[37] = Day 12, mouse F1, SCV-07 0.1 mg/kg sc
[38] = Day 12, mouse F1, SCV-07 1.0 mg/kg sc
[39] = Day 12, mouse F1, SCV-07 5.0 mg/kg sc
[40] = Day 12, mouse F2, SCV-07 0.01 mg/kg sc
[41] = Day 12, mouse F2, SCV-07 0.1 mg/kg sc
[42] = Day 12, mouse F2, SCV-07 1.0 mg/kg sc

N[C@H](CCC(=O)N[C@@H](Cc1c[nH]c2ccccc12)C(=O)O)C(=O)O [SCV-07, γ-D-glutamyl-L-tryptophan]
0.035 ± 0.036 cm^3: Tumor Volume (Mean ± SD) (Day 9, SCV-07 1.0 mg/kg/day sc)
0.25 cm^3: Tumor volumes [38] | Tumor volumes [40]
37.7%: IR (tumor volume inhibition rate) [33]
0.6 cm: Tumor measurements L [9] | Tumor measurements W [9] | Tumor measurements L [11] | Tumor measurements W [11] | Tumor measurements L [13] | Tumor measurements W [13] | Tumor measurements L [14] | Tumor measurements W [14] | Tumor measurements L [18] | Tumor measurements W [18]
0.4 cm: Tumor measurements L [22] | Tumor measurements W [22] | Tumor measurements L [24]
0.11 cm^3: Tumor volumes [9] | Tumor volumes [11] | Tumor volumes [13] | Tumor volumes [14] | Tumor volumes [18]
61.3%: IR (tumor volume inhibition rate) [34]
0.00 cm^3: Tumor volumes [15] | Tumor volumes (Day 9, mouse M2, SCV-07 0.1 mg/kg sc) | Tumor volumes (Day 9, mouse M3, SCV-07 0.1 mg/kg sc)
0.03 cm^3: Tumor volumes [22]
0 cm: Tumor measurements L [15] | Tumor measurements W [15]
0.045 ± 0.042 cm^3: Tumor Volume (Mean ± SD) [1]
0.048 ± 0.036 cm^3: Tumor Volume (Mean ± SD) (Day 9, SCV-07 5.0 mg/kg/day sc)
0.5 cm: Tumor measurements L [2] | Tumor measurements W [2] | Tumor measurements L [3] | Tumor measurements W [3] | Tumor measurements L [4] | Tumor measurements W [4] | Tumor measurements L [5] | Tumor measurements W [5] | Tumor measurements L [6] | Tumor measurements W [6] | Tumor measurements L [7] | Tumor measurements W [7] | Tumor measurements L [8] | Tumor measurements W [8] | Tumor measurements L [10] | Tumor measurements W [10] | Tumor measurements L [16] | Tumor measurements W [16] | Tumor measurements L [17] | Tumor measurements W [17] | Tumor measurements L [21] | Tumor measurements W [21] | Tumor measurements L [23] | Tumor measurements W [23] | Tumor measurements L [26] | Tumor measurements W [26] | Tumor measurements L [29] | Tumor measurements W [29] | Tumor measurements L [30] | Tumor measurements W [30] | Tumor measurements L [31] | Tumor measurements W [31]
−4.3%: IR (tumor volume inhibition rate) [1]
0.292 ± 0.169 cm^3: Tumor Volume (Mean ± SD) [34]
1.0 cm: Tumor measurements L [37] | Tumor measurements W [37] | Tumor measurements L [38] | Tumor measurements L [39] | Tumor measurements L [40] | Tumor measurements L [41] | Tumor measurements W [41]
0.01 cm^3: Tumor volumes [12] | Tumor volumes [19] | Tumor volumes [20] | Tumor volumes [25] | Tumor volumes [27] | Tumor volumes [28]
0.368 ± 0.223 cm^3: Tumor Volume (Mean ± SD) [32]
0.36 cm^3: Tumor volumes [42]
0.340 ± 0.195 cm^3: Tumor Volume (Mean ± SD) [35]
0 cm^3: Tumor Volume (Mean ± SD) (Day 3, SCV-07 0.01 mg/kg/day sc, not measurable defined as 0) | Tumor Volume (Mean ± SD) (Day 3, SCV-07 0.1 mg/kg/day sc, not measurable defined as 0) | Tumor Volume (Mean ± SD) (Day 3, SCV-07 1.0 mg/kg/day sc, not measurable defined as 0) | Tumor Volume (Mean ± SD) (Day 3, SCV-07 5.0 mg/kg/day sc, not measurable defined as 0) | Tumor Volume (Mean ± SD) (Day 6, SCV-07 0.01 mg/kg/day sc, not measurable defined as 0) | Tumor Volume (Mean ± SD) (Day 6, SCV-07 0.1 mg/kg/day sc, not measurable defined as 0) | Tumor Volume (Mean ± SD) (Day 6, SCV-07 1.0 mg/kg/day sc, not measurable defined as 0) | Tumor Volume (Mean ± SD) (Day 6, SCV-07 5.0 mg/kg/day sc, not measurable defined as 0)
0.06 cm^3: Tumor volumes [2] | Tumor volumes [3] | Tumor volumes [4] | Tumor volumes [5] | Tumor volumes [6] | Tumor volumes [7] | Tumor volumes [8] | Tumor volumes [10] | Tumor volumes [16] | Tumor volumes [17] | Tumor volumes [21] | Tumor volumes [23] | Tumor volumes [26] | Tumor volumes [29] | Tumor volumes [30] | Tumor volumes [31]
11.5%: IR (tumor volume inhibition rate) (Day 9, SCV-07 0.1 mg/kg/day sc)
0.1 cm: Tumor measurements L [36] | Tumor measurements W [36]
−11.0%: IR (tumor volume inhibition rate) (Day 9, SCV-07 5.0 mg/kg/day sc)
0.50 cm^3: Tumor volumes [37] | Tumor volumes [41]
0.469 ± 0.199 cm^3: Tumor Volume (Mean ± SD) [33]
0.02 cm^3: Tumor volumes [24]
0.3 cm: Tumor measurements L [12] | Tumor measurements W [12] | Tumor measurements L [19] | Tumor measurements W [19] | Tumor measurements L [20] | Tumor measurements W [20] | Tumor measurements W [24] | Tumor measurements L [25] | Tumor measurements W [25] | Tumor measurements L [27] | Tumor measurements W [27] | Tumor measurements L [28] | Tumor measurements W [28]
0.7 cm: Tumor measurements W [38] | Tumor measurements W [40]
51.2%: IR (tumor volume inhibition rate) [32]
19.7%: IR (tumor volume inhibition rate) (Day 9, SCV-07 1.0 mg/kg/day sc)
5E−04 cm^3: Tumor volumes [36]
54.9%: IR (tumor volume inhibition rate) [35]
0.9 cm: Tumor measurements W [39] | Tumor measurements L [42] | Tumor measurements W [42]
0.41 cm^3: Tumor volumes [39]
0.039 ± 0.038 cm^3: Tumor Volume (Mean ± SD) (Day 9, SCV-07 0.1 mg/kg/day sc)
